Where a name gives a salt, the structure may show the parent alone. Read-outs that look alike come from different tables or passages of the source.
Tests used:
[1] = Kinetic solubility determination in PBS; type: physicochemical; settings: phosphate buffered saline (PBS 1×), 21 °C, pH 7.4, aqueous buffer, kinetic from dmso stock, PBS 1X pH 7.4, 2.0% DMSO, 24 hour incubation at ambient temperature
Procedure: Kinetic solubility buffer (phosphate buffered saline (PBS, 1×) at pH 7.4) was prepared from PBS (10×) solution, (Fisher Scientific, Pittsburgh, Pa., USA, 10×), by adding PBS (50 mL, 10×) to approximately water (450 mL HPLC grade). The volume of the solution was then adjusted to 500 mL for a total dilution factor of 1:10 and a final PBS concentration of 1×. The pH of the final solution (PBS (1×)) was measured and found to be 7.4.
A DMSO stock solution (typically 10 mM or greater) was used for each compound to be tested. A final DMSO concentration of 2.0% and maximum theoretical compound concentration of typically 200 μM (or greater) was achieved by diluting an aliquot (6 μl) of each stock with kinetic solubility buffer (294 μl, PBS (1×) at pH 7.4) using a liquid handling system (Hamilton STARlet, Hamilton Robotics, Inc., Reno, Nev., USA) and incubated directly in a solubility filter plate (Millipore, Billerica, Mass., USA). Following 24 hour incubation at ambient temperature (20.5-21.7° C.), each sample was vacuum filtered. The filtrate was injected into the chemiluminescent nitrogen detector for quantification (Automated Discovery Workstation, Analiza, Inc., Cleveland, Ohio, USA). Each result was reported both in μM and μg/mL units. Three separate on-board performance indicating standards were assayed in triplicate with each test compound to ensure test results were within the acceptable range.
The equimolar nitrogen response of the detector was calibrated using standards which spanned the dynamic range of the instrument from 0.08 to 4500 μg/ml nitrogen. Each filtrate was quantified with respect to this calibration curve. Each calculated solubility value was corrected for background nitrogen present in the DMSO, and buffer used to prepare each sample. All reported values for samples containing adjacent nitrogen atoms in a ring structure were corrected for the expected non-equimolar response. Each calculated solubility result assumed that each sample was free of nitrogen containing impurities and was stable under the assay conditions. Analyses were performed at Analiza Inc. (Cleveland, Ohio, USA) by published methods (Bhattachar, S. N., et al, J. Pharma. BioMed Anal. 41:152-7 2006).

human Granzyme B (hGzmB) = target: T1, human Granzyme B (hGzmB) (Homo sapiens, UniProt P10144); assay: Human Granzyme B enzymatic inhibition assay (fluorogenic, kinetic); type: biochemical; settings: activity codes, Table 7; read-out: IC50 Activity Range
T1 construct: purchased Froelich Lab, Northshore University Health Systems Research Institute, Evanston, Ill., USA
Summary of the method: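 Human Granzyme B preincubated with compound for 30 min total (5 min shaking, 20 min bench, then reaction temperature). Fluorogenic substrate added and read kinetically, 25 cycles at 1-min intervals. Percent inhibition at one or two concentrations or 8–12-point 3-fold dose response from 20 uM, replicates, with IC50 by non-linear regression.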

[2] = read-out: Solubility in aqueous PBS Buffer (1X, pH 7.4)
[3] = read-out: Solubility in aqueous PBS Buffer (1X, pH 7.4), ug/mL

T1 sequence (P10144 21-247): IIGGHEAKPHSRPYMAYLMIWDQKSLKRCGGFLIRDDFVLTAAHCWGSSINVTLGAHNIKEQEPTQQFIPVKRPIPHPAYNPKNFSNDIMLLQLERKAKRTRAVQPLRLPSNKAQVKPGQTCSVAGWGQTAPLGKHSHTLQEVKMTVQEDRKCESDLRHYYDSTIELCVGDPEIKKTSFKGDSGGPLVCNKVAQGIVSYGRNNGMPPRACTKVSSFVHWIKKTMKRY

| SMILES | solubility at 24 h [1, 2] | solubility at 24 h [1, 3] | IC50 (human Granzyme B (hGzmB)) |
| --- | --- | --- | --- |
| CC[C@H](C)[C@H](NC(=O)Cc1ccncc1)C(=O)NCC(=O)N1c2ccccc2C[C@H]1C(=O)NCc1nn[nH]n1 [Example A2, (2S)-1-{2-[(2S,3S)-3-Methyl-2-[2-(Pyridin-4-Yl)Acetamido]Pentanamido]Acetyl}-N-(2H-1,2,3,4-Tetrazol-5-Ylmethyl)-2,3-Dihydro-1H-Indole-2-Carboxamide] | > 150 µM | > 80 µg/mL | 0.1 to 1 µM |
| CC[C@H](C)[C@H](NC(=O)Cc1cccnc1)C(=O)NCC(=O)N1c2ccccc2C[C@H]1C(=O)NCc1nn[nH]n1 [Example A3, (2S)-1-{2-[(2S,3S)-3-Methyl-2-[2-(Pyridin-3-Yl)Acetamido]Pentanamido]Acetyl}-N-(2H-1,2,3,4-Tetrazol-5-Ylmethyl)-2,3-Dihydro-1H-Indole-2-Carboxamide] | 139 µM | 74 µg/mL | 0.1 to 1 µM |
| CC[C@H](C)[C@H](NC(=O)Cc1ccccn1)C(=O)NCC(=O)N1c2ccccc2C[C@H]1C(=O)NCc1nn[nH]n1 [Example A4, (2S)-1-{2-[(2S,3S)-3-Methyl-2-[2-(Pyridin-2-Yl)Acetamido]Pentanamido]Acetyl}-N-(2H-1,2,3,4-Tetrazol-5-Ylmethyl)-2,3-Dihydro-1H-Indole-2-Carboxamide] | > 150 µM | > 80 µg/mL | 0.1 to 1 µM |
| CC[C@H](C)[C@H](NC(=O)CCN)C(=O)NCC(=O)N1c2ccccc2C[C@H]1C(=O)NCc1nn[nH]n1 [Example A6, (2S)-1-{2-[(2S,3S)-2-(3-Aminopropanamido)-3-Methylpentanamido]Acetyl}-N-(2H-1,2,3,4-Tetrazol-5-Ylmethyl)-2,3-Dihydro-1H-Indole-2-Carboxamide] | > 150 µM | > 78 µg/mL | 1 to 10 µM |
| CC[C@H](C)[C@H](NC(=O)CCCN)C(=O)NCC(=O)N1c2ccccc2C[C@H]1C(=O)NCc1nn[nH]n1 [Example A7, (2S)-1-{2-[(2S,3S)-2-(4-Aminobutanamido-3-Methylpentanamido]Acetyl}-N-(2H-1,2,3,4-Tetrazol-5-Ylmethyl)-2,3-Dihydro-1H-Indole-2-Carboxamide Hydrochloride] | 124 µM | 67 µg/mL | 1 to 10 µM |
| CC[C@H](C)[C@H](NC(=O)Cc1ccc(N)cc1)C(=O)NCC(=O)N1c2ccccc2C[C@H]1C(=O)NCc1nn[nH]n1 [Example A8, (2S)-1-{2-[(2S,3S)-2-[2-(4-Aminophenyl)Acetamido]-3-Methylpentanamido]Acetyl}-N-(2H-1,2,3,4-Tetrazol-5-Ylmethyl)-2,3-Dihydro-1H-Indole-2-Carboxamide Hydrochloride] | > 150 µM | > 88 µg/mL | 0.1 to 1 µM |
| CC[C@H](C)[C@H](NC(=O)Cc1csc(N)n1)C(=O)NCC(=O)N1c2ccccc2C[C@H]1C(=O)NCc1nn[nH]n1 [Example A10, (2S)-1-{2-[(2S,3S)-2-[2-(2-Amino-1,3-Thiazol-4-Yl)Acetamido]-3-Methylpentanamido]Acetyl}-N-(2H-1,2,3,4-Tetrazol-5-Ylmethyl)-2,3-Dihydro-1H-Indole-2-Carboxamide Hydrochloride] | > 750 µM | > 443 µg/mL | 0.1 to 1 µM |
| O=C(Cc1ccccc1)N[C@H](C(=O)NCC(=O)N1c2ccccc2C[C@H]1C(=O)NCc1nn[nH]n1)C1CCCC1 [Example A12, (2S)-1-{2-[(2S)-2-Cyclopentyl-2-(2-Phenylacetamido)Acetamido]Acetyl}-N-(2H-1,2,3,4-Tetrazol-5-Ylmethyl)-2,3-Dihydro-1H-Indole-2-Carboxamide] | 594 µM | 323 µg/mL | 0.1 to 1 µM |
| CC[C@H](C)[C@H](NC(=O)CCCC(=O)O)C(=O)NCC(=O)N1c2ccccc2C[C@H]1C(=O)NCc1nn[nH]n1 [Example A14, 4-{[(1S,2S)-2-Methyl-1-({2-Oxo-2-[(2S)-2-[(2H-1,2,3,4-Tetrazol-5-Ylmethyl)Carbamoyl]-2,3-Dihydro-1H-Indol-1-Yl]Ethyl}Carbamoyl)Butyl]Carbamoyl}Butanoic Acid] | 107 µM | 57 µg/mL | < 0.1 µM |
| CC[C@H](C)[C@H](NC(C)=O)C(=O)NCC(=O)N1c2ccccc2C[C@H]1C(=O)NCc1nn[nH]n1 [Example A15, (2S)-1-{2-[(2S,3S)-2-Acetamido-3-Methylpentanamido]Acetyl}-N-(2H-1,2,3,4-Tetrazol-5-Ylmethyl)-2,3-Dihydro-1H-Indole-2-Carboxamide] | 565 µM | 258 µg/mL | 0.1 to 1 µM |
| CC[C@H](C)[C@H](NC(=O)CCC(=O)O)C(=O)NCC(=O)N1c2ccccc2C[C@H]1C(=O)NCc1c[nH]nn1 [Example A16, 3-{[(1S,2S)-2-Methyl-1-({2-Oxo-2-[(2S)-2-[(1H-1,2,3-Triazol-4-Ylmethyl)Carbamoyl]-2,3-Dihydro-1H-Indol-1-Yl]Ethyl}Carbamoyl)Butyl]Carbamoyl}Propanoic Acid] | > 750 µM | > 385 µg/mL | < 0.1 µM |
| CC[C@H](C)[C@H](NC(=O)CC(C)(C)CC(=O)O)C(=O)NCC(=O)N1c2ccccc2C[C@H]1C(=O)NCc1nn[nH]n1 [Example A18, 3,3-Dimethyl-4-{[(1S,2S)-2-Methyl-1-({2-Oxo-2-[(2S)-2-[(2H-1,2,3,4-Tetrazol-5-Ylmethyl)Carbamoyl]-2,3-Dihydro-1H-Indol-1-Yl]Ethyl}Carbamoyl)Butyl]Carbamoyl}Butanoic Acid] | 679 µM | 447 µg/mL | < 0.1 µM |
| CC[C@H](C)[C@H](NC(=O)CC1(CC(=O)O)CCCC1)C(=O)NCC(=O)N1c2ccccc2C[C@H]1C(=O)NCc1nn[nH]n1 [Example A19, 2-[1-({[(1S,2S)-2-Methyl-1-({2-Oxo-2-[(2S)-2-[(2H-1,2,3,4-Tetrazol-5-Ylmethyl)Carbamoyl]-2,3-Dihydro-1H-Indol-1-Yl]Ethyl}Carbamoyl)Butyl]Carbamoyl}Methyl)Cyclopentyl]Acetic Acid] | 672 µM | 391 µg/mL | < 0.1 µM |
| CC[C@H](C)[C@H](NC(=O)/C=C\C(=O)O)C(=O)NCC(=O)N1c2ccccc2C[C@H]1C(=O)NCc1nn[nH]n1 [Example A24, (2Z)-3-{[(1S,2S)-2-Methyl-1-({2-Oxo-2-[(2S)-2-[(2H-1,2,3,4-Tetrazol-5-Ylmethyl)Carbamoyl]-2,3-Dihydro-1H-Indol-1-Yl]Ethyl}Carbamoyl)Butyl]Carbamoyl}Prop-2-Enoic Acid] | 719 µM | 441 µg/mL | < 0.1 µM |
| CC[C@H](C)[C@H](NC(=O)c1ccccc1C(=O)O)C(=O)NCC(=O)N1c2ccccc2C[C@H]1C(=O)NCc1nn[nH]n1 [Example A25, 2-{[(1S,2S)-2-Methyl-1-({2-Oxo-2-[(2S)-2-[(2H-1,2,3,4-Tetrazol-5-Ylmethyl)Carbamoyl]-2,3-Dihydro-1H-Indol-1-Yl]Ethyl}Carbamoyl)Butyl]Carbamoyl}Benzoic Acid] | 696 µM | 462 µg/mL | < 0.1 µM |
| CC[C@H](C)[C@H](NC(=O)[C@H](O)[C@@H](O)C(=O)O)C(=O)NCC(=O)N1c2ccccc2C[C@H]1C(=O)NCc1nn[nH]n1 [Example A32, (2R,3R)-2,3-Dihydroxy-3-{[(1S,2S)-2-Methyl-1-({2-Oxo-2-[(2S)-2-[(2H-1,2,3,4-Tetrazol-5-Ylmethyl)Carbamoyl]-2,3-Dihydro-1H-Indol-1-Yl]Ethyl}Carbamoyl)Butyl]Carbamoyl}Propanoic Acid] | > 750 µM | > 410 µg/mL | < 0.1 µM |
| CC[C@H](C)[C@H](NC(=O)Cc1ccc(CC(=O)O)cc1)C(=O)NCC(=O)N1c2ccccc2C[C@H]1C(=O)NCc1nn[nH]n1 [Example A34, 2-[4-({[(1S,2S)-2-Methyl-1-({2-Oxo-2-[(2S)-2-[(2H-1,2,3,4-Tetrazol-5-Ylmethyl)Carbamoyl]-2,3-Dihydro-1H-Indol-1-Yl]Ethyl}Carbamoyl)Butyl]Carbamoyl}Methyl)Phenyl]Acetic Acid] | > 750 µM | > 443 µg/mL | < 0.1 µM |
